Data on 12 molecules can be found in US20240208992A1, “MACROCYCLES AS CFTR MODULATORS” (Idorsia Pharmaceuticals Ltd, priority 2021, published 2024).

The assay concerns the target human F508del-CFTR (Homo sapiens, UniProt P13569, DEL508-508). Description: F508del-CFTR cell surface expression (corrector activity), DiscoveRx ß-galactosidase complementation chemiluminescence assay in recombinant U2OS cell line.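 On all read-outs here: U2OS cells co-expressing ProLink-tagged F508del-CFTR and a membrane-anchored enzyme acceptor, where more surface CFTR restores β-galactosidase activity measured by chemiluminescence.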 Particulars: U2OS cell line, 16h compound incubation; for EC50: EC50, F508del-CFTR cell surface expression, geomean values; for Emax: U2OS, in relation to the Emax of the corrector lumacaftor (=100%), arithmetic mean values.

Chain of human F508del-CFTR (P13569 with tags, fused parts or gaps DEL508-508): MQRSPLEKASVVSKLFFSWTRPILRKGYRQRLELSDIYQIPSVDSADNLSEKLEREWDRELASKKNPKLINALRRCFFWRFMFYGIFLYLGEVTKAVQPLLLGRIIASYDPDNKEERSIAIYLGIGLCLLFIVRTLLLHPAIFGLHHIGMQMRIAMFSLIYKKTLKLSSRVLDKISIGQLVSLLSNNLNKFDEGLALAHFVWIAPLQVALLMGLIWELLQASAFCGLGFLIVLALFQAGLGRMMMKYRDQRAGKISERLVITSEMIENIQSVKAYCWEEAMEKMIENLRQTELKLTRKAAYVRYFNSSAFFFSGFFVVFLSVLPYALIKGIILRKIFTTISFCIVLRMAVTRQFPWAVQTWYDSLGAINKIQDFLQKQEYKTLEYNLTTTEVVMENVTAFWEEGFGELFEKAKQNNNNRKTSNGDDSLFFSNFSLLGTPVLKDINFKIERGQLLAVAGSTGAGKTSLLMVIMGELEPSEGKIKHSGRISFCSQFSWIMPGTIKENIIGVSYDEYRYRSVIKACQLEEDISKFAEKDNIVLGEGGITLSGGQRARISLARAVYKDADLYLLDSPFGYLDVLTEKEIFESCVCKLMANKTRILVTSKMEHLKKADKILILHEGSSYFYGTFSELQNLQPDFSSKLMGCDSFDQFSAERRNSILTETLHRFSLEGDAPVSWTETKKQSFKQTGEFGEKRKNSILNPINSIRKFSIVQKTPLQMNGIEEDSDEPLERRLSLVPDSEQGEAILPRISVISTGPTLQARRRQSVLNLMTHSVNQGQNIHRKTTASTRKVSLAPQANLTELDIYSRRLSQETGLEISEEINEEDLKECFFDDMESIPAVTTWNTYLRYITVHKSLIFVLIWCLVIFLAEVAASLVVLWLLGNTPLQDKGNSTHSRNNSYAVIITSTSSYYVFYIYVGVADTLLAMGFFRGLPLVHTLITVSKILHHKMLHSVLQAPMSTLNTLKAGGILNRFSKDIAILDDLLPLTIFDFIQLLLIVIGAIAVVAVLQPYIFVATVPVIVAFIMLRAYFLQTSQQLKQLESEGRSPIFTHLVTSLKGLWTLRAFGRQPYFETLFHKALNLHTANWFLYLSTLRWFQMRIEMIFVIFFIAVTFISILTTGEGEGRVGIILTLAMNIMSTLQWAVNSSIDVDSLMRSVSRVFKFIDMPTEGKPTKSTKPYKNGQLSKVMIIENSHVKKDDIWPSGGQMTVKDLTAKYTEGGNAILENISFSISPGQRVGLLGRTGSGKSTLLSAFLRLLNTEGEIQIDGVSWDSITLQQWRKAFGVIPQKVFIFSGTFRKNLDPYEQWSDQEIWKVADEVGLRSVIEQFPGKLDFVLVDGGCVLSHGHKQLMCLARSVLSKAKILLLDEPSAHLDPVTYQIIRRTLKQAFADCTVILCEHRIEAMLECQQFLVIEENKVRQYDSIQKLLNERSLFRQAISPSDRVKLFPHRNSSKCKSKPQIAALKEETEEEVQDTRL

Take `Cc1cccc2c1C(=O)N[C@H](C(=O)NCCc1ccc3c(c1)OCO3)CC(=O)N(C)[C@@H](CC(C)C)C(=O)N(CCC1CCCCC1)CC(=O)N[C@H](Cc1ccccc1)CO2` [Example 246, (3R,9S,13S)-N-(2-(benzo[d][1,3]dioxol-5-yl)ethyl)-3-benzyl-7-(2-cyclohexylethyl)-9-isobutyl-10,16-dimethyl-5,8,11,15-tetraoxo-2,3,4,5,6,7,8,9,10,11,12,13,14,15-tetradecahydrobenzo[p][1]oxa[4,7,10,14]tetraazacycloheptadecine-13-carboxamide]: the EC50 worked out at 140 nM and the Emax is 105%.

`COc1cccc(CCNC(=O)[C@@H]2CC(=O)N(C)[C@@H](CC(C)C)C(=O)N(CCC3CCCCC3)CC(=O)N[C@H](Cc3ccccc3)COc3cccc(C)c3C(=O)N2)c1` [Example 247, (3R,9S,13S)-3-benzyl-7-(2-cyclohexylethyl)-9-isobutyl-N-(3-methoxyphenethyl)-10,16-dimethyl-5,8,11,15-tetraoxo-2,3,4,5,6,7,8,9,10,11,12,13,14,15-tetradecahydrobenzo[p][1]oxa[4,7,10,14]tetraazacycloheptadecine-13-carboxamide]: the EC50 came to 146 nM and the maximum response (Emax) amounted to 111%.

Take `COc1ccc2c(c1)C(=O)N[C@H](C(=O)NCCc1ccc3c(c1)OCO3)CC(=O)N(C)[C@@H](CC(C)C)C(=O)N(CCC1CCCCC1)CC(=O)N[C@H](Cc1ccccc1)CO2` [Example 248, (3R,9S,13S)-N-(2-(benzo[d][1,3]dioxol-5-yl)ethyl)-3-benzyl-7-(2-cyclohexylethyl)-9-isobutyl-17-methoxy-10-methyl-5,8,11,15-tetraoxo-2,3,4,5,6,7,8,9,10,11,12,13,14,15-tetradecahydrobenzo[p][1]oxa[4,7,10,14]tetraazacycloheptadecine-13-carboxamide]: the EC50 stood at 106 nM and the maximal effect (Emax) came to 191%.

For the molecule `COc1cccc(CCNC(=O)[C@@H]2CC(=O)N(C)[C@@H](CC(C)C)C(=O)N(CCC3CCCCC3)CC(=O)N[C@H](Cc3ccccc3)COc3ccc(OC)cc3C(=O)N2)c1` [Example 249, (3R,9S,13S)-3-benzyl-7-(2-cyclohexylethyl)-9-isobutyl-17-methoxy-N-(3-methoxyphenethyl)-10-methyl-5,8,11,15-tetraoxo-2,3,4,5,6,7,8,9,10,11,12,13,14,15-tetradecahydrobenzo[p][1]oxa[4,7,10,14]tetraazacycloheptadecine-13-carboxamide], the EC50 stood at 116 nM and the Emax was 175%.

Turning to `CC(C)C[C@H]1C(=O)N(CCC2CCCCC2)CC(=O)N[C@H](Cc2ccccc2)COc2cc3ccccc3cc2C(=O)N[C@H](C(=O)NCCc2ccc3c(c2)OCO3)CC(=O)N1C` [Example 250, (3R,9S,13S)-N-(2-(benzo[d][1,3]dioxol-5-yl)ethyl)-3-benzyl-7-(2-cyclohexylethyl)-9-isobutyl-10-methyl-5,8,11,15-tetraoxo-2,3,4,5,6,7,8,9,10,11,12,13,14,15-tetradecahydronaphtho[2,3-p][1]oxa[4,7,10,14]tetraazacycloheptadecine-13-carboxamide], the EC50 was found to be 86 nM and the Emax came to 160%.

Take `COc1cccc(CCNC(=O)[C@@H]2CC(=O)N(C)[C@@H](CC(C)C)C(=O)N(CCC3CCCCC3)CC(=O)N[C@H](Cc3ccccc3)COc3cc4ccccc4cc3C(=O)N2)c1` [Example 251, (3R,9S,13S)-3-benzyl-7-(2-cyclohexylethyl)-9-isobutyl-N-(3-methoxyphenethyl)-10-methyl-5,8,11,15-tetraoxo-2,3,4,5,6,7,8,9,10,11,12,13,14,15-tetradecahydronaphtho[2,3-p][1]oxa[4,7,10,14]tetraazacycloheptadecine-13-carboxamide]: the EC50 is 83 nM and the Emax is 159%.

As to `CCc1ccc(CCNC(=O)[C@@H]2CC(=O)N(C)[C@@H](CC(C)C)C(=O)N(C)CC(=O)N[C@H](Cc3ccccc3)COc3ccncc3C(=O)N2)cc1` [Example 252, (3R,9S,13S)-3-benzyl-N-(4-ethylphenethyl)-9-isobutyl-7,10-dimethyl-5,8,11,15-tetraoxo-2,3,4,5,6,7,8,9,10,11,12,13,14,15-tetradecahydropyrido[3,4-p][1]oxa[4,7,10,14]tetraazacycloheptadecine-13-carboxamide], the EC50 came to 888 nM and the Emax was determined as 111%.

`CC(C)C[C@H]1C(=O)N(CCC2CCCCC2)CC(=O)N[C@H](Cc2ccccc2)COc2ccc(Cl)cc2C(=O)N[C@H](C(=O)NCCc2ccc3c(c2)OCO3)CC(=O)N1C` [Example 253, (3R,9S,13S)-N-(2-(benzo[d][1,3]dioxol-5-yl)ethyl)-3-benzyl-17-chloro-7-(2-cyclohexylethyl)-9-isobutyl-10-methyl-5,8,11,15-tetraoxo-2,3,4,5,6,7,8,9,10,11,12,13,14,15-tetradecahydrobenzo[p][1]oxa[4,7,10,14]tetraazacycloheptadecine-13-carboxamide]: the 50% effective concentration (EC50) came out at 88 nM and the Emax turned out to be 136%.

`COc1cccc(CCNC(=O)[C@@H]2CC(=O)N(C)[C@@H](CC(C)C)C(=O)N(CCC3CCCCC3)CC(=O)N[C@H](Cc3ccccc3)COc3ccc(Cl)cc3C(=O)N2)c1` [Example 254, (3R,9S,13S)-3-benzyl-17-chloro-7-(2-cyclohexylethyl)-9-isobutyl-N-(3-methoxyphenethyl)-10-methyl-5,8,11,15-tetraoxo-2,3,4,5,6,7,8,9,10,11,12,13,14,15-tetradecahydrobenzo[p][1]oxa[4,7,10,14]tetraazacycloheptadecine-13-carboxamide]: the EC50 came to 102 nM and the maximum response (Emax) is 152%.

As to `COc1cc(OC)c2c(c1)OC[C@@H](Cc1ccccc1)NC(=O)CN(CCC1CCCCC1)C(=O)[C@H](CC(C)C)N(C)C(=O)C[C@@H](C(=O)NCCc1ccc3c(c1)OCO3)NC2=O` [Example 255, (3R,9S,13S)-N-(2-(benzo[d][1,3]dioxol-5-yl)ethyl)-3-benzyl-7-(2-cyclohexylethyl)-9-isobutyl-16,18-dimethoxy-10-methyl-5,8,11,15-tetraoxo-2,3,4,5,6,7,8,9,10,11,12,13,14,15-tetradecahydrobenzo[p][1]oxa[4,7,10,14]tetraazacycloheptadecine-13-carboxamide], the EC50 was determined as 183 nM and the Emax was determined as 299%.

For `COc1cccc(CCNC(=O)[C@@H]2CC(=O)N(C)[C@@H](CC(C)C)C(=O)N(CCC3CCCCC3)CC(=O)N[C@H](Cc3ccccc3)COc3cc(OC)cc(OC)c3C(=O)N2)c1` [Example 256, (3R,9S,13S)-3-benzyl-7-(2-cyclohexylethyl)-9-isobutyl-16,18-dimethoxy-N-(3-methoxyphenethyl)-10-methyl-5,8,11,15-tetraoxo-2,3,4,5,6,7,8,9,10,11,12,13,14,15-tetradecahydrobenzo[p][1]oxa[4,7,10,14]tetraazacycloheptadecine-13-carboxamide], the EC50 was determined as 147 nM and the Emax was found to be 319%.

On to `COc1cccc2c1C(=O)N[C@H](C(=O)NCCc1ccc3c(c1)OCO3)CC(=O)N(C)CC(=O)N(CCC1CCCCC1)CC(=O)N[C@H](Cc1ccccc1)CO2` [Example 257, (3R,13S)-N-(2-(benzo[d][1,3]dioxol-5-yl)ethyl)-3-benzyl-7-(2-cyclohexylethyl)-16-methoxy-10-methyl-5,8,11,15-tetraoxo-2,3,4,5,6,7,8,9,10,11,12,13,14,15-tetradecahydrobenzo[p][1]oxa[4,7,10,14]tetraazacycloheptadecine-13-carboxamide], for which the EC50 stood at 249 nM and the Emax was found to be 116%.

By EC50 is commonly meant the concentration giving half of the maximal effect. Broadly, the Emax is the maximal effect, on the per cent scale that the assay sets.
